Five molecules from ChEMBL document CHEMBL3739288, “Dimeric Octaketide Spiroketals from the Jellyfish-Derived Fungus Paecilomyces variotii J08NF-1” (2015) can be followed below.

Each structure is given as a SMILES string. In brackets after ≈: the same amount, converted by molar mass.

Assay type in all cases: functional
One experiment concerns Streptococcus iniae. As to the kind of experiment: Antibacterial activity against Streptococcus iniae after 24 hrs by broth microdilution method. (In general: In broth dilution the organism is exposed to a series of concentrations in liquid medium.)
The subject of the next experiment is Vibrio ichthyoenteri. As to the kind of experiment: Antibacterial activity against Vibrio ichthyoenteri after 24 hrs by broth microdilution method.
The next experiment deals with Staphylococcus aureus. As to the kind of experiment: Antibacterial activity against Staphylococcus aureus SG511 after 24 hrs by broth microdilution method. The following applies: SG511, 24 h.

As usually defined, the MIC is the smallest concentration in the dilution series that meets the test's criterion for growth inhibition. Take `CN(C)[C@@H]1C(O)=C(C(N)=O)C(=O)[C@@]2(O)C(=O)C3=C(O)c4c(O)cccc4[C@@](C)(O)[C@H]3[C@H](O)[C@@H]12`: the MIC against Streptococcus iniae came to 2.5 µg/mL (≈ 5.43 µM); in the experiment with Vibrio ichthyoenteri, 0.16 µg/mL (≈ 0.347 µM).
For `CCCCCCCCC(=O)c1cccc2c1C=C(CCCCCCC)C1(OCc3c(O)cccc31)O2` (racemic), the MIC is more than 40 µg/mL against Streptococcus iniae, 40 µg/mL (≈ 81.5 µM) against Vibrio ichthyoenteri and more than 40 µg/mL with Staphylococcus aureus.
Turning to `CN(C)[C@@H]1C(O)=C(C(N)=O)C(=O)[C@@]2(O)C(O)=C3C(=O)c4c(O)cccc4[C@@](C)(O)[C@H]3C[C@@H]12` [TETRACYCLINE], in the experiment on Staphylococcus aureus, the minimum inhibitory concentration (MIC) was 0.16 µg/mL (≈ 0.36 µM).
For `CCCCCCCCC(=O)c1cccc2c1C=C(CCCCCCC)[C@]1(OCc3c(O)cccc31)O2`, the MIC in the experiment with Streptococcus iniae, with Vibrio ichthyoenteri and against Staphylococcus aureus was more than 40 µg/mL each time.
Turning to `CCCCCCCCC(=O)c1cccc2c1C=C(CCCCCCC)[C@@]1(OCc3c(O)cccc31)O2`, the MIC in the experiment on Streptococcus iniae, with Vibrio ichthyoenteri and against Staphylococcus aureus was more than 40 µg/mL each time.
